Assay results as given in US20120184562A1, “1,6- AND 1,8-NAPHTHYRIDINES” (priority 2011, published 2012).
Where a name gives a salt, the structure may show the parent alone. Read-outs that look alike come from different tables or passages of the source.

What was measured:
Human DYRK1B = target: T1, Human DYRK1B (Homo sapiens, UniProt Q9Y463); assay: DYRK1B Kinase TR-FRET (IMAP-Tb) Assay; type: biochemical
T1 construct: purchased Invitrogen PR8350B (former PV4649)
From the text: DYRK1B Kinase TR-FRET (IMAP-Tb) Assay The kinase TR-FRET (IMAP-Tb) assay uses a fluorescence labeled substrate peptide in the kinase reaction. Upon phosphorylation by the kinase, phosphopeptide is produced, which will be detected by the binding solution provided in IMAP TR-FRET binding kit. After the completion of the kinase reaction, the reaction will be stopped by adding the binding solution containing terbium tracer. This tracer is immobilized on the surface of the IMAP beads, which also contain metal ions on the beads that bind to the phospho-groups of the products. Thus the phosphorylated product of the reaction can enter into close proximity to the tracer, producing resonance energy transfer. Due to the long lifetime of terbium (Tb) fluorescence the detection can be run in time resolved mode, which virtually eliminates fluorescence interference from assay components or compounds. The TR-FRET signal measurement from this assay, given as an IC50 measurement, is a measure of a test compound's ability to interfere with the phosphorylation of the peptide substrate, that is it inhibits the phosphorylation of the substrate peptide by DYRK1B, and is thus a measure of the test compound's ability to inhibit the activity of DYRK1B. […] Human DYRK1B: from Invitrogen. Part #PR8350B (former PV4649) • 2. Substrate Peptide: in-house synthesized: RRRFRPASPLRGPPK • 3. IMAP TR-FRET IPP Explorer Kit: from Molecular Devices. Part #R8157 • 4. Kinase Assay Buffer (KAB): 10 mM HEPES pH 7.0, 50 mM NaCl, 5 mM MgCl2, 1 mM DTT, 1 mM NaVO4, 200 μg/mL BSA (0.02%) • 5. Assay Plate: Remp polypropylene clear 384-well microplate. Cat#23490-102 • 6. Detection Plate: Costa black 384-well microplate. Cat #3710 Assay Procedure: This assay was performed as follows: • 1. Transfer 1.5 μL of 20× compound solution to each well of an assay plate. • 2. Add to each well 22.5 μL of KAB Buffer. • 3. Add to each well 3 μL of the solution of DYRK1B and ATP. […] Add to each well 3 μL of the substrate peptide. The assay concentration is 1.0 μM • 5. Incubate the assay plates at 37° C. for 60 minutes. • 6. Add 18 μL of Detection Solution (1:800 diluted Progress bead stock, 1:400 diluted Tb stock, 80% Buffer A, and 20% Buffer B) into each well of detection plates. • 7. Transfer 6 μL of assay solution from the assay plate to the detection plate. • 8. Shake detection plates for 30 minutes. • 9. Read plates in Envision with wavelength set at excitation 340 nm for Tb, emission 490 nm, and […] 520 nm. • 10. Calculation: TR-FRET Signal=(Reading at […]/Reading at 490 nM)×2000000

Human DYRK1A = target: T2, Human DYRK1A (Homo sapiens, UniProt Q13627); assay: DYRK1A Kinase TR-FRET (IMAP-Tb) Assay; type: biochemical; conditions: TR-FRET (IMAP-Tb); ATP 70 μM; 37° C., 60 minutes; average of multiple runs; read-out: Enzyme IC50 (μM) DYRK1A
T2 construct: purchased Invitrogen PV3997
From the text: DYRK1A Kinase TR-FRET (IMAP-Tb) Assay
The kinase TR-FRET (IMAP-Tb) assay uses a fluorescence labeled substrate peptide in the kinase reaction. Upon phosphorylation by the kinase, phosphopeptide is produced, which will be detected by the binding solution provided in IMAP TR-FRET binding kit. After the completion of the kinase reaction, the reaction will be stopped by adding the binding solution containing terbium tracer. This tracer is immobilized on the surface of the IMAP beads, which also contain metal ions on the beads that bind to the phospho-groups of the products. Thus the phosphorylated product of the reaction can enter into close proximity to the tracer, producing resonance energy transfer. Due to the long lifetime of terbium (Tb) fluorescence the detection can be run in time resolved mode, which virtually eliminates fluorescence interference from assay components or compounds.
The TR-FRET signal measurement from this assay, given as an IC50 measurement, is a measure of a test compound's ability to interfere with the phosphorylation of the peptide substrate, that is it inhibits the phosphorylation of the substrate peptide by DYRK1A, and is thus a measure of the test compound's ability to inhibit the activity of DYRK1A.
• 1. Human DYRK1A: from Invitrogen. Part #PV3997 • 2. Substrate Peptide: […] • 3. IMAP TR-FRET IPP Explorer Kit: from Molecular Devices. Part #R8157 • 4. Kinase Assay Buffer (KAB): 10 mM HEPES pH 7.0, 50 mM NaCl, 5 mM MgCl2, 1 mM DTT, 1 mM NaVO4, 200 μg/mL BSA (0.02%) • 5. Assay Plate: Remp polypropylene clear 384-well microplate. […] Detection Plate: Costa black 384-well microplate. […] Transfer 1.5 μL of 20× compound solution to each well of an assay plate. • 2. Add to each well 22.5 μL of KAB Buffer. • 3. Add to each well 3 μL of the solution of DYRK1A and ATP. […] Add to each well 3 μL of the substrate peptide. The assay concentration is 1.0 μM • 5. Incubate the assay plates at 37° C. for 60 minutes. • 6. Add 18 μL of Detection Solution (1:800 diluted Progress bead stock, 1:400 diluted Tb stock, 80% Buffer A, and 20% Buffer B) into each well of detection plates. • 7. Transfer 6 μL of assay solution from the assay plate to the detection plate. • 8. Shake detection plates for 30 minutes. • 9. Read plates in Envision with wavelength set at excitation 340 nm for Tb, emission 490 nm, and […].

[1] = tested on: SW620 human colon cancer cells; assay: SW620 Cell Viability Assay; type: cell-based; conditions: SW-620, 96 h, 4 days incubation, CellTiter-Glo Luminescent Cell Viability Assay, read-out: Cellular EC50 (μM) SW620
Description: SW620 Cell Viability Assay
1. Cell Plate Preparation: SW620 human colon cancer cells (known to express DYRK1B), obtained from ATCC, were seeded into 96-well plates at 3×10^3 cells/well in 50 μL of media. • Harvested the required number of cells (counts & viability determined by Guava Viacount). • Centrifuge cells to pellet and removed supernant. • Resuspended in growth media (50 μL/well) & pipetted thoroughly to break up clumps. • Setup for ˜100 wells/plate, therefore, VT=5 mL/plate @ […]. 1A. Some cells (S—) were allowed to attach for 24 hrs, serum starved for 48 hrs, and then followed with drug treatments. Test compound solution were prepared in regular corresponding media supplemented with serum. 2. Test Compound Preparation: Test compounds were solubilized in either DMSO or media and prepared at various stock concentrations. • All compounds were incubated at 37° C. for 30 minutes and vortexed. • (5 mM stocks of test compound were prepared for non-soluble compounds)
• The 10 mM test compound stock was diluted to a concentration of 100× the final Cmax concentration. • Then the test compound stock is diluted 50-fold in media and/or second compound for a final Cmax concentration in the test compound plate. • The Cmax in the test compound plate (2% DMSO) is 2-fold higher than the final Cmax in the cell plate (60 uL titrations were 1:3). 4. Viability Assay: This assay was performed as follows: • Transfer 50 μL of test compound solution per well from the test compound plate onto the cell plate prepared in Step #1. • Mix the plate with treated cells by pipetting up and down three times with 200 μL multi-channel pipette. • Incubate the cells in 5% CO2 incubator @ 37° C. for 4 days. • Run the CellTiter-Glo™ Luminescent Cell Viability Assay.
The results of this assay, given as EC50 values, indicate the concentration of test compound that inhibits tumor cell proliferation by 50%.

[2] = TR-FRET (IMAP-Tb), ATP 70 μM, 37° C., 60 minutes, average of multiple runs, read-out: Enzyme IC50 (μM) DYRK1B

T1 sequence (Q9Y463 whole entry): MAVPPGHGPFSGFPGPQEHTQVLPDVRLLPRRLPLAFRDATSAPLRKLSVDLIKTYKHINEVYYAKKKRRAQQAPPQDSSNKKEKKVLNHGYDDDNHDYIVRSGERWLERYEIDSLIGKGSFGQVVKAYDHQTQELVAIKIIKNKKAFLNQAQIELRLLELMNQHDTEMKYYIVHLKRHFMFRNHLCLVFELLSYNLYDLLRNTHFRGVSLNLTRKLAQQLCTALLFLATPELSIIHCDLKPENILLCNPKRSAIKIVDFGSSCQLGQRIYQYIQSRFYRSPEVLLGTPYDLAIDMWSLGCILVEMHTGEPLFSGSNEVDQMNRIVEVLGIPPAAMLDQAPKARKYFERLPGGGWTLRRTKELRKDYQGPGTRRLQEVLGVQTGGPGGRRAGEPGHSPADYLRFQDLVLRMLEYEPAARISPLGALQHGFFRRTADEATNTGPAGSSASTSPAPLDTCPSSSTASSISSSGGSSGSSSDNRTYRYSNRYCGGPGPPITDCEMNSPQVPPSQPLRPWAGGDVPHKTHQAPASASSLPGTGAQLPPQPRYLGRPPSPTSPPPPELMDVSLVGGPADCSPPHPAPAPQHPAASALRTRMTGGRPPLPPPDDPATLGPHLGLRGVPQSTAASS

Row | Structure (SMILES) | IC50 (Human DYRK1B; [2]) [µM] | IC50 (Human DYRK1A) [µM] | EC50 [1] [µM] | IC50 (Human DYRK1B) [µM]
1 | COC(=O)c1ccc(Cl)c(NC(=O)c2cc3cnc(OC)cc3[nH]c2=O)c1 [Example 30, 4-Chloro-3-[(7-methoxy-2-oxo-1,2-dihydro-[1,6]naphthyridine-3-carbonyl)-amino]-benzoic acid methyl ester] | 0.119 | 0.135 | > 10 | –
2 | COc1cc2[nH]c(=O)c(C(=O)Nc3cc(C(=O)NCc4ccccc4)ccc3C)cc2cn1 [Example 33, 7-Methoxy-2-oxo-1,2-dihydro-[1,6]naphthyridine-3-carboxylic acid (5-benzylcarbamoyl-2-methyl-phenyl)-amide] | 0.484 | 2.15 | 1.47 | –
3 | COc1cc2[nH]c(=O)c(C(=O)Nc3cc(C(=O)NCc4cccs4)ccc3C)cc2cn1 [Example 37, 7-Methoxy-2-oxo-1,2-dihydro-[1,6]naphthyridine-3-carboxylic acid {2-methyl-5-[(thiophen-2-ylmethyl)-carbamoyl]-phenyl}-amide] | 0.917 | 0.588 | 0.47 | –
4 | COc1cc2[nH]c(=O)c(C(=O)Nc3cc(C(=O)NCc4ccsc4)ccc3C)cc2cn1 [Example 38, 7-Methoxy-2-oxo-1,2-dihydro-[1,6]naphthyridine-3-carboxylic acid {2-methyl-5-[(thiophen-3-ylmethyl)-carbamoyl]-phenyl}-amide] | 0.424 | 0.266 | > 10 | –
5 | COc1cc2[nH]c(=O)c(C(=O)Nc3cc(C(=O)NCc4ccsc4)ccc3Cl)cc2cn1 [Example 43, 7-Methoxy-2-oxo-1,2-dihydro-[1,6]naphthyridine-3-carboxylic acid {2-chloro-5-[(thiophen-3-ylmethyl)-carbamoyl]-phenyl}-amide] | 0.041 | 0.028 | > 10 | –
6 | COc1cc2[nH]c(=O)c(C(=O)Nc3cc(C(=O)NC(CN)c4ccccc4)ccc3Cl)cc2cn1 (stereo not shown) [Example 45, 7-Methoxy-2-oxo-1,2-dihydro-[1,6]naphthyridine-3-carboxylic acid [5-(2-amino-1-phenyl-ethylcarbamoyl)-2-chloro-phenyl]-amide; hydrochloride] | 0.014 | 0.0115 | 0.177 | –
7 | COC(=O)c1ccc(C)c(NC(=O)c2cc3cnc(NCC(O)CO)cc3[nH]c2=O)c1 (stereo not shown) [Example 49, 3-{[7-(2,3-Dihydroxy-propylamino)-2-oxo-1,2-dihydro-[1,6]naphthyridine-3-carbonyl]-amino}-4-methyl-benzoic acid methyl ester; hydrochloride] | 0.537 | 0.3 | > 10 | –
8 | COc1cc2[nH]c(=O)c(C(=O)Nc3cc(C(=O)NC(CN)c4cccc(Cl)c4)ccc3Cl)cc2cn1 (stereo not shown) [Example 51, 7-Methoxy-2-oxo-1,2-dihydro-[1,6]naphthyridine-3-carboxylic acid {5-[2-amino-1-(3-chloro-phenyl)-ethylcarbamoyl]-2-chloro-phenyl}-amide; hydrochloride] | 0.119 | 0.0198 | 0.373 | –
9 | COc1cc2[nH]c(=O)c(C(=O)Nc3cc(C(=O)NC(CCN)c4ccsc4)ccc3Cl)cc2cn1 (stereo not shown) [Example 53, 7-Methoxy-2-oxo-1,2-dihydro-[1,6]naphthyridine-3-carboxylic acid [5-(3-amino-1-thiophen-3-yl-propylcarbamoyl)-2-chloro-phenyl]-amide] | – | – | 0.0524 | 0.0138
10 | COc1cc2[nH]c(=O)c(C(=O)Nc3cc(C(=O)NC(CN)c4ccccc4)ccc3C)cc2cn1 (stereo not shown) [Example 55, 7-Methoxy-2-oxo-1,2-dihydro-[1,6]naphthyridine-3-carboxylic acid [5-(2-amino-1-phenyl-ethylcarbamoyl)-2-methyl-phenyl]-amide; hydrochloride] | 0.0915 | 0.0506 | 0.68 | –
11 | COc1cc2[nH]c(=O)c(C(=O)Nc3cc(C(=O)NC(CN)c4cccc(Cl)c4)ccc3C)cc2cn1 (stereo not shown) [Example 57, 7-Methoxy-2-oxo-1,2-dihydro-[1,6]naphthyridine-3-carboxylic acid {5-[2-amino-1-(3-chloro-phenyl)-ethylcarbamoyl]-2-methyl-phenyl}-amide; hydrochloride] | 0.146 | 0.0512 | 0.496 | –
12 | COc1cc2[nH]c(=O)c(C(=O)Nc3cc(C(=O)NC(CN)c4ccsc4)ccc3Cl)cc2cn1 (stereo not shown) [Example 71, 7-Methoxy-2-oxo-1,2-dihydro-[1,6]naphthyridine-3-carboxylic acid [5-(2-amino-1-thiophen-3-yl-ethylcarbamoyl)-2-chloro-phenyl]-amide; hydrochloride] | – | – | 0.137 | < 0.0046
